Measured values taken from US12486489B2, “Culture medium for testing drug resistance of H.pylori as well as preparation method and use thereof” (priority 2022, dated 2025).
Like-named read-outs stand apart in the source and are kept apart here.

Tests used:
H. pylori [1] = assay: Drug resistance testing of laboratory strains on characteristic culture medium (discoloration after 36 hours); type: cell-based, Helicobacter pylori
Procedure: The characteristic culture media (A, B, C, D, E) are cultivated at a constant temperature of 37° C. for 36 hours in a three gas incubator. The characteristic culture media are removed and placed in a natural environment for 30 minutes to observe whether there are discolorations at the point of the culture medium where the specimen is dropped in. […] Another 100 μL of the specimen is taken and coated on Columbia solid culture medium and cultivated in a three gas incubator at a constant temperature of 37° C. for 3 days to 5 days. The number of colonies on the plate is counted to determine the initial inoculation amount. The micro dilution method is adopted to test the MIC of clinical specimen H. pylori, the test is meaningful only when there is no bacterial growth in the negative control well without bacteria and there is bacterial growth in the positive well with bacteria but without antibiotics. […] The results are recorded and whether the micro dilution method and characteristic culture medium are consistent with each other in evaluating the drug resistance of clinical H. pylori strains is compared. […]
(2) Inoculation of bacterial solution: 10 μL bacterial solution is taken and added dropwise onto a characteristic culture medium with 5 pieces (ABCDE) in total.
(3) Culture: all plates are moved to a three gas incubator and cultivated at 37° C. for 36 hours. After being taken out and placed in a natural environment for 30 minutes, whether the bacteria have resistance is determined based on the discoloration of the characteristic culture medium.

H. pylori [2] = conditions: bacterial count 1×10^6 CFU/mL; cited from earlier work
H. pylori [3] = assay: Verification of resistance breakpoint: growth of laboratory strains on Columbia solid culture medium with added antibiotics, 72 hours; type: cell-based, Helicobacter pylori
Procedure: The plates are cooled and inverted for approximately 10 mL/piece, marked properly for the subsequent use.
(2) Preparation of bacterial solution: H. pylori grown in logarithmic phase on a solid plate is taken to prepare a bacterial suspension by using BHI. The concentration OD600 is adjusted to 0.3 (1×10^8 CFU/mL), diluted 10 times for the subsequent use.
(3) Inoculation of bacterial solution: 10 μL of bacterial solution is taken and added to Columbia culture medium and the results are determined after cultivating for 72 hours.
(4) Result determination: the minimum drug concentration for no growth of bacteria on the plate is the minimum inhibitory concentration of the bacteria against the drug.

[4] = system: clinical H. pylori strain; assay: MIC of clinical H. pylori strains by micro dilution method; type: cell-based; conditions: Helicobacter pylori, 72 h, approximately 1.0×10^6 CFU/mL per well, 72 hours, read-out: MIC
Procedure: (§1) The characteristic culture media (A, B, C, D, E) are cultivated at a constant temperature of 37° C. for 36 hours in a three gas incubator. The characteristic culture media are removed and placed in a natural environment for 30 minutes to observe whether there are discolorations at the point of the culture medium where the specimen is dropped in. […] Another 100 μL of the specimen is taken and coated on Columbia solid culture medium and cultivated in a three gas incubator at a constant temperature of 37° C. for 3 days to 5 days. The number of colonies on the plate is counted to determine the initial inoculation amount. The micro dilution method is adopted to test the MIC of clinical specimen H. pylori, the test is meaningful only when there is no bacterial growth in the negative control well without bacteria and there is bacterial growth in the positive well with bacteria but without antibiotics.
H. pylori single colony grown on Colombian culture medium is taken (which is confirmed as H. pylori by urease, oxidase, catalase, and PCR testing of CagA gene, as illustrated in FIG. 13) and the bacteria are increased. During the preparation of MIC plates and bacterial solution, H. pylori with logarithmic growth phase is taken to prepare a bacterial suspension by using BHI. The concentration OD600 is adjusted to 0.3 (1×10^8 CFU/mL, diluted 10 times, 10 μL is taken and added to wells 1-8 (with a bacterial solution concentration of approximately 1.0×10^6 CFU/mL per well, cultivated for 72 hours to determine the results.

[5] = system: clinical H. pylori strain; assay: Drug resistance testing of clinical specimens on characteristic culture medium (discoloration after 36 hours); type: cell-based, Helicobacter pylori
Procedure: as §1
(1) Transfer liquid preparation: after sterilization and cooling, BHI culture medium is added with 10% calf serum, followed by 30% glycerol to prepare H. pylori preservation solution. On this basis, 1% H. pylori selective additive is added to prepare the transfer liquid. 1 mL of transfer solution is taken into a sterile EP tube, and 6-8 sterilized small steel balls are poured into the EP tube for the subsequent use.
(3) Specimen acquisition: a biopsy tissue group is obtained from the gastric antrum and a small curvature side of the gastric body through a gastroscopy biopsy passage and placed into an EP tube (strictly sterile operation). The biopsy tissue is placed on the ice surface and transferred as soon as possible (within 2 hours) to complete the subsequent steps.
(4) Preparation of bacterial solution containing tissue: the EP tube containing tissue is placed in a homogenizer at 300 hz and crushed for 5 minutes, transferred to another EP, centrifuged at 12000 rpm for 2 minutes, the supernatant is discarded, BHI is resuspended to 200 μL, and a bacterial suspension is prepared for the subsequent use.
(5) Inoculation of bacterial solution: 10 μL of bacterial solution is taken and added dropwise to the characteristic culture medium (5 pieces in total). The characteristic culture medium is removed after cultivating in a three gas incubator at 37° C. for 36 hours, and the results are determined after leaving for 30 minutes; another 100 μL is taken and coated onto Colombian culture medium for the traditional bacterial culture.

With `Cc1ncc([N+](=O)[O-])n1CCO` [Metronidazole, metronidazole] the “drug resistance determined by discoloration of characteristic culture medium” value (H. pylori [1]; strain 159, 1×10^6 CFU/mL) was “developed resistance”, the “drug resistance determined by discoloration of characteristic culture medium” value (H. pylori [1]; strain 286, 1×10^6 CFU/mL) was “have developed resistance” and the “drug resistance determined by discoloration of characteristic culture medium” value (H. pylori [1]; strain 287, 1×10^6 CFU/mL) was “have developed resistance”. For the same molecule, the “drug resistance determined by discoloration of characteristic culture medium” value (H. pylori [1]; strain 289, 1×10^6 CFU/mL) was “have developed resistance”, the “drug resistance determined by discoloration of characteristic culture medium” value (H. pylori [1]; strain G27, 1×10^6 CFU/mL) was “does not develop resistance” and the “resistance breakpoints of H. pylori according to CLSI guidelines” value (H. pylori [2]) was 8 µg/mL. The “optimal concentration for adding antibiotics” value (H. pylori [3]; conclusion of breakpoint verification) was 4 µg/mL, the “growth of sensitive strains” value (H. pylori [3]; levofloxacin 0.5, clarithromycin 0.5, metronidazole 4, amoxicillin 0.5 μg/mL) was “no sensitive strain grows” and the growth of bacterial (H. pylori [3]; strain 159, antibiotic 2 μg/mL) was “+”. The growth of bacterial (H. pylori [3]; strain 159, antibiotic 4 μg/mL) was “+”, the growth of bacterial (H. pylori [3]; strain 159, antibiotic 8 μg/mL) was “−” and the growth of bacterial (H. pylori [3]; strain 161, antibiotic 2 μg/mL) was “+”. The growth of bacterial (H. pylori [3]; strain 161, antibiotic 4 μg/mL) was “+”, the growth of bacterial (H. pylori [3]; strain 161, antibiotic 8 μg/mL) was “−” and the growth of bacterial (H. pylori [3]; strain 162, antibiotic 2 μg/mL) was “+”. The growth of bacterial (H. pylori [3]; strain 162, antibiotic 4 μg/mL) was “−”, the growth of bacterial (H. pylori [3]; strain 162, antibiotic 8 μg/mL) was “−” and the growth of bacterial (H. pylori [3]; strain 163, antibiotic 2 μg/mL) was “+”. For the same molecule, the growth of bacterial (H. pylori [3]; strain 163, antibiotic 4 μg/mL) was “+”, the growth of bacterial (H. pylori [3]; strain 163, antibiotic 8 μg/mL) was “−” and the growth of bacterial (H. pylori [3]; strain 286, antibiotic 2 μg/mL) was “+”. For the same molecule, the growth of bacterial (H. pylori [3]; strain 286, antibiotic 4 μg/mL) was “+”, the growth of bacterial (H. pylori [3]; strain 286, antibiotic 8 μg/mL) was “−” and the growth of bacterial (H. pylori [3]; strain 287, antibiotic 2 μg/mL) was “+”. The growth of bacterial (H. pylori [3]; strain 287, antibiotic 4 μg/mL) was “+”, the growth of bacterial (H. pylori [3]; strain 287, antibiotic 8 μg/mL) was “−” and the growth of bacterial (H. pylori [3]; strain 289, antibiotic 2 μg/mL) was “+”. The growth of bacterial (H. pylori [3]; strain 289, antibiotic 4 μg/mL) was “+”, the growth of bacterial (H. pylori [3]; strain 289, antibiotic 8 μg/mL) was “−” and the growth of bacterial (H. pylori [3]; strain 290, antibiotic 2 μg/mL) was “+”. For the same molecule, the growth of bacterial (H. pylori [3]; strain 290, antibiotic 4 μg/mL) was “+”, the growth of bacterial (H. pylori [3]; strain 290, antibiotic 8 μg/mL) was “+” and the growth of bacterial (H. pylori [3]; strain 26695, antibiotic 2 μg/mL) was “+”. The growth of bacterial (H. pylori [3]; strain 26695, antibiotic 4 μg/mL) was “−”, the growth of bacterial (H. pylori [3]; strain 26695, antibiotic 8 μg/mL) was “−” and the growth of bacterial (H. pylori [3]; strain G27, antibiotic 2 μg/mL) was “+”. For the same molecule, the growth of bacterial (H. pylori [3]; strain G27, antibiotic 4 μg/mL) was “−”, the growth of bacterial (H. pylori [3]; strain G27, antibiotic 8 μg/mL) was “−” and the MIC ([4]; clinical strain FY-31) was 1 µg/mL. The MIC ([4]; clinical strain FY-43) was 0.5 µg/mL, the MIC ([4]; clinical strain FY-47) was 16 µg/mL and the MIC ([4]; clinical strain FY-52) was 1 µg/mL. The “drug resistance determined on characteristic culture medium” value ([5]; clinical H. pylori strain FY-31) was “sensitive”, the “drug resistance determined on characteristic culture medium” value ([5]; clinical H. pylori strain FY-43) was “sensitive” and the “drug resistance determined on characteristic culture medium” value ([5]; clinical H. pylori strain FY-47) was “resistant”. The “drug resistance determined on characteristic culture medium” value ([5]; clinical H. pylori strain FY-52) was “sensitive”.
